From US7128895B2, “Use of bile acid derivatives conjugated with metal ion chelated complexes for the diagnostic assessment of microvascular permeability” (Bracco Imaging S.p.A., priority 2000, dated 2006)
Entries after “also recorded” stand apart in the source; their conditions may differ.

Test: Urinary and faecal excretion screening of an intravenously administered contrast agent
Assay type: in vivo
Settings: rats
Experimental: Experimental Model for the Urinary and Faecal Excretion Screening of an Intravenously Administered Contrast Agent
The experimentation is performed on 6 rats.
The rats are individually housed in metabolic cages and urine and faeces are collected daily, for 7 days after administration. In particular faeces and urine are collected at the following time periods: 0 to 24 h,and every 24 hours up to 7 days.
The animals are killed by decapitation at 7 days post-dosing and animals blood is collected in heparinised test tubes and then centrifuged for 15 min at 3500·g to separate the plasma. After bleeding, liver, spleen, femurs and kidneys are collected and weighted to evaluate residual content of Gd in the organs. Residual gadolinium concentration in the organic samples is determined by inductively-coupled plasma atomic emission spectrometry (ICP-AES) with a Jobin-Yvon Mod 24 spectrometer
Excretion Screening of Rats Injected with B22956/1.
The screening is performed using the contrast compound as 0.25M solution. The agent in intravenously injected in 6 rats with single doses of 0.1 and 1.0 mmol·kg^−1 of animal body weight.

[1] = 0.1 mmol·kg^-1 intravenous, 7 days
[2] = 1.0 mmol·kg^-1 intravenous, 0 to 7 days
[3] = 1.0 mmol·kg^-1 intravenous, within 24 h after injection

gadolinium complex of the [3(S),5,12]-3-[[4-[bis[2-[bis(carboxymethyl)-amino]ethyl]amino]-4-carboxy-1-oxobutyl]amino]-12-hydroxycholan-24-oic acid [B22956/1]
cumulative urinary and faecal elimination within 7 days (0.1 mmol·kg^-1 intravenous): 94 to 102 % of the ID | average cumulative amount of gadolinium recovered in faeces [1]: 88.2±7.9 % of the injected dose (ID) | average cumulative amount of gadolinium recovered in urine [1]: 9.0±3.7 % of the ID | injected dose recovered in the faeces within 24 h (0.1 mmol·kg^-1 intravenous, within 24 h after injection): ~87 % of the injected dose | cumulative urinary and faecal elimination within 7 days (1.0 mmol·kg^-1 intravenous): 89 to 92 % of the ID | gadolinium recovered in faeces, cumulative amount [2]: 39.7±1.4 % of the ID | gadolinium recovered in urine, cumulative amount [2]: 52.7 % of the ID | injected dose recovered in the faeces within 24 h [3]: about 37 % of ID | injected dose recovered in the urine within 24 h [3]: ~48 % of the injected dose | residual Gd in plasma, liver, spleen, femurs and kidneys (7 days after 0.1 or 1.0 mmol·kg^-1): almost total absence of gadolinium residues; also recorded: very low or negligible | residual Gd in the plasma as fraction of injected dose (7 days after administration, plasma volume taken as 40 mL/Kg): less than 0.04 % of the injected dose | residual content of Gd in plasma (7 days, both administered doses, ICP-AES detection limit): < 0.05 μg gadolinium/mL
